We go through twelve molecules from ChEMBL document CHEMBL1201862, “PubChem BioAssay data set” (2004).

Among the test systems are SW-620; CAKI-1; CCRF-CEM; UO-31; SK-MEL-5; NCI-H23; IGROV-1; SNB-19; NCI-H226; SN12C; NCI-H522; EKVX; KM12; HCC 2998; OVCAR-5; SF-539; SF-295; RXF 393.
Common to all, as to test: DTP human tumour cell line panel, 48 h

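Each compound was tested at five concentrations against cells in 96-well plates for 48 hours. At the GI50, growth is halved.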 Active and inactive are the calls of the source. Cut-off read from the data, not from the text of the source: active = GI50 up to about 1.1 µM and inactive = higher. Some results are limits rather than exact numbers.

Turning to `COc1ccc(/C=C/c2cc(OC)c(OC)c(OC)c2)cc1`, the GI50 (commonly the concentration at which growth is held to half of that of the control) in the assay with SW-620 is 5.77 µM (inactive); with CAKI-1, 3.53 µM (inactive); with CCRF-CEM it was 1.66 µM (inactive); with UO-31 it was 4.68 µM (inactive); in the assay on SK-MEL-5, 3.68 µM (inactive); with NCI-H23, 5.81 µM (inactive). Also, the GI50 in the assay with IGROV-1 was 11 µM (inactive); with SNB-19, 13.6 µM (inactive); with NCI-H226, 5.61 µM (inactive); in the assay on SN12C it was 13.2 µM (inactive); with NCI-H522, 2.85 µM (inactive); in the assay on EKVX, 24.2 µM (inactive). Besides, the GI50 was 3.3 µM (inactive) in the assay with KM12; 3.7 µM (inactive) in the assay with HCC 2998; 1.85 µM (inactive) in the assay on OVCAR-5; 4.29 µM (inactive) with SF-539; 2.73 µM (inactive) with SF-295; 1.48 µM (inactive) with RXF 393.

As for `COc1cc(OC)c(OC)cc1/C=N/NC(=O)N/N=C/c1cc(OC)c(OC)cc1OC`, the GI50 with SW-620, with CCRF-CEM, in the assay on UO-31, in the assay with SK-MEL-5, in the assay on NCI-H23 and with IGROV-1 was > 100 µM (inactive) each time. In addition, the GI50 in the assay with SNB-19 is > 100 µM (inactive); in the assay on NCI-H226, > 100 µM (inactive); with SN12C, > 100 µM (inactive); with NCI-H522, 17.5 µM (inactive); with EKVX, > 100 µM (inactive); with KM12 it was > 100 µM (inactive). For the same molecule, the GI50 is > 100 µM (inactive) with OVCAR-5, 33.6 µM (inactive) in the assay with SF-539 and > 100 µM (inactive) in the assay with SF-295.

With `C[C@@]12CCCc3coc(c31)C(=O)c1cc3c(cc12)C(=O)C=CC3=O` [XESTOQUINONE], the GI50 in the assay with SW-620 was 5.08 µM (inactive); with CAKI-1 it was 14.9 µM (inactive); in the assay on CCRF-CEM it was 2.23 µM (inactive); in the assay on UO-31, 16.2 µM (inactive); with SK-MEL-5, 16.7 µM (inactive); in the assay with NCI-H23, 16 µM (inactive). Besides, the GI50 with IGROV-1 is 18.5 µM (inactive); in the assay with SNB-19 it was 43.8 µM (inactive); with SN12C it was 20.3 µM (inactive); with NCI-H522, 7.06 µM (inactive); with EKVX, 18.8 µM (inactive); with KM12 it was 21.7 µM (inactive). Moreover, the GI50 was 28.1 µM (inactive) in the assay on HCC 2998, 22 µM (inactive) in the assay with OVCAR-5, 15.7 µM (inactive) in the assay with SF-539 and 14.9 µM (inactive) in the assay on RXF 393.

Turning to `CCOCN1COCN(C)C1=O`, the GI50 with SW-620, in the assay with CAKI-1, in the assay on CCRF-CEM, with UO-31, in the assay on SK-MEL-5 and with NCI-H23 was > 100 µM (inactive) each time. The GI50 with IGROV-1, with SNB-19, with NCI-H226, with SN12C, in the assay with EKVX and in the assay with KM12 was > 100 µM (inactive) each time. The GI50 in the assay on HCC 2998, in the assay on OVCAR-5, in the assay on SF-539 and in the assay with SF-295 was > 100 µM (inactive) in each case.

Turning to `Cc1ccc2c(CC(=O)O)cc(=O)oc2c1`, the GI50 in the assay with SW-620, with CAKI-1, in the assay with CCRF-CEM, in the assay on SK-MEL-5, with NCI-H23 and in the assay on IGROV-1 was > 100 µM (inactive) throughout. The GI50 with SNB-19, in the assay on NCI-H226, in the assay on SN12C, with NCI-H522, in the assay with EKVX and in the assay with KM12 was > 100 µM (inactive) throughout. The GI50 in the assay with HCC 2998 was > 100 µM (inactive); in the assay on OVCAR-5, > 100 µM (inactive); in the assay with SF-539 it was > 100 µM (inactive); in the assay on SF-295 it was > 100 µM (inactive); with RXF 393, 3.72 µM (inactive).

On to `Cc1ccc(/C=C/C(=O)C(C)(C)CN2CCCCC2)cc1`, for which the GI50 is 2.72 µM (inactive) in the assay with SW-620; 3.78 µM (inactive) in the assay on CAKI-1; 3.11 µM (inactive) in the assay with CCRF-CEM; 10.3 µM (inactive) in the assay with UO-31; 2.86 µM (inactive) with SK-MEL-5; 11.5 µM (inactive) in the assay with NCI-H23. Also, the GI50 with IGROV-1 is 11.4 µM (inactive); with SNB-19 it was 2.57 µM (inactive); in the assay with NCI-H226, 13.2 µM (inactive); in the assay with SN12C, 3.9 µM (inactive); in the assay with NCI-H522 it was 3.33 µM (inactive); in the assay on EKVX, 3.18 µM (inactive). Also, the GI50 with KM12 was 3.28 µM (inactive); with HCC 2998, 15 µM (inactive); in the assay with OVCAR-5, 15.2 µM (inactive); with SF-539 it was 4.6 µM (inactive); in the assay on SF-295 it was 7.8 µM (inactive); in the assay on RXF 393, 5.11 µM (inactive).

Regarding `Cc1c(Cl)cccc1NC(=O)C(=O)C(C(=O)c1ccccc1-c1ccccc1)C1OC(=O)c2ccccc21` (stereo not given), the GI50 in the assay on SW-620 was 21.3 µM (inactive); in the assay with CCRF-CEM it was 19.8 µM (inactive); in the assay with UO-31, 20.4 µM (inactive); in the assay with SK-MEL-5 it was 15.7 µM (inactive); in the assay on NCI-H23 it was 14.5 µM (inactive); in the assay with IGROV-1, 32.1 µM (inactive). Also, the GI50 in the assay with NCI-H226 is 3.94 µM (inactive); in the assay with NCI-H522, 12.5 µM (inactive); in the assay on EKVX it was 26.8 µM (inactive); in the assay with KM12, 18.5 µM (inactive); in the assay on HCC 2998 it was 17.1 µM (inactive); with OVCAR-5, 22.5 µM (inactive). In addition, the values for the GI50 in the assay with SF-539, in the assay with SF-295 and in the assay with RXF 393 were 14.7 µM (inactive), 19.1 µM (inactive) and 12.6 µM (inactive), respectively.

`CCCN(CCCC(NC(C)=O)C(=O)NCc1ccccc1)C(=O)N(C)N=O` (stereo not given): the GI50 with SW-620, in the assay on CAKI-1, in the assay on CCRF-CEM, in the assay on SK-MEL-5, with NCI-H23 and in the assay with IGROV-1 was > 100 µM (inactive) in each case. The GI50 in the assay on NCI-H226, with SN12C, with NCI-H522, with EKVX, with KM12 and in the assay with HCC 2998 was > 100 µM (inactive) each time. In addition, the GI50 in the assay on OVCAR-5, in the assay with SF-539, in the assay on SF-295 and with RXF 393 was > 100 µM (inactive) in each case.

On to `Cn1c(=O)nc2n(-c3cc(Cl)ccc3Cl)c3ccccc3nc-2c1=O`, for which the GI50 was 2.18 µM (inactive) in the assay on SW-620; 7.19 µM (inactive) in the assay with CAKI-1; 4.02 µM (inactive) with CCRF-CEM; 13.6 µM (inactive) in the assay on UO-31; 1.95 µM (inactive) with SK-MEL-5; 0.299 µM (active) in the assay with NCI-H23. For the same molecule, the GI50 was 13 µM (inactive) in the assay on IGROV-1; 4.67 µM (inactive) in the assay with SNB-19; 7.69 µM (inactive) in the assay with NCI-H226; 4.48 µM (inactive) in the assay with SN12C; 5.31 µM (inactive) in the assay on NCI-H522; 3.88 µM (inactive) in the assay with EKVX. Also, the GI50 in the assay on KM12 was 5.58 µM (inactive); in the assay on HCC 2998, 2.68 µM (inactive); in the assay with OVCAR-5, 13 µM (inactive); with SF-539, 5.92 µM (inactive); in the assay on SF-295, 7.62 µM (inactive); in the assay with RXF 393 it was 14.8 µM (inactive).

For the molecule `NNC(=O)N/N=C1\C(=O)N(c2nccs2)C(=O)C(=O)C1c1nc2ccccc2s1` (stereo not given), the GI50 in the assay on SW-620, in the assay with CAKI-1, in the assay on UO-31, in the assay with NCI-H23, with IGROV-1 and in the assay on SNB-19 was > 100 µM (inactive) each time. Further, the GI50 in the assay with NCI-H226, in the assay with SN12C, with EKVX, with KM12, in the assay on HCC 2998 and in the assay on OVCAR-5 was > 100 µM (inactive) each time. Also, the GI50 in the assay with SF-539, with SF-295 and in the assay with RXF 393 was > 100 µM (inactive) in each case.

Consider `COC(=O)/C(=N\NC(=O)c1ccccc1O)C(C#N)c1ccccc1` (stereo not given), for which the GI50 is 23.5 µM (inactive) in the assay on SW-620; 27.7 µM (inactive) with CAKI-1; 19.4 µM (inactive) in the assay on CCRF-CEM; 12.9 µM (inactive) in the assay with UO-31; 22 µM (inactive) in the assay on SK-MEL-5; 20.1 µM (inactive) in the assay with NCI-H23. In addition, the GI50 in the assay with IGROV-1 is 19.5 µM (inactive); in the assay with SNB-19, 23.2 µM (inactive); with NCI-H226, 12.7 µM (inactive); with SN12C it was 37.4 µM (inactive); in the assay on NCI-H522, 17.2 µM (inactive); in the assay on EKVX it was 18.4 µM (inactive). Also, the GI50 with KM12 was 24.1 µM (inactive); in the assay on HCC 2998 it was > 50 µM (inactive); with OVCAR-5, 20.9 µM (inactive); with SF-539, 14.8 µM (inactive); in the assay on SF-295, 22.1 µM (inactive); in the assay on RXF 393 it was 16.5 µM (inactive).

For the molecule `CC1CCC[P+](Cc2ccccc2)(c2ccccc2)CC1` (stereo not given), the GI50 in the assay with SW-620 was 94.4 µM (inactive); in the assay with CCRF-CEM, 42.3 µM (inactive); with UO-31, > 100 µM (inactive); in the assay with SK-MEL-5, 14.5 µM (inactive); with NCI-H23, 27.2 µM (inactive); with IGROV-1, 39 µM (inactive). Further, the GI50 was 46.5 µM (inactive) in the assay with SNB-19; > 100 µM (inactive) in the assay with SN12C; > 100 µM (inactive) in the assay on EKVX; 29.1 µM (inactive) in the assay with HCC 2998; > 100 µM (inactive) in the assay on OVCAR-5; 69.5 µM (inactive) with SF-539. Also, the GI50 with RXF 393 was 23.1 µM (inactive).
